# System: LPS-primed monocytes
# Experiment: Surface molecule expression on LPS-primed human monocytes (flow cytometry)
# Format: cell-based
# Settings: LPS 100 ng/ml, 18 hr, 10 μM compound vs DMSO control; flow cytometry MFI
# Protocol: Human monocytes were stimulated with LPS (100 ng/ml) in the presence of either an isotype control IgG, or anti-CD11b antibody (ICRF44) for 18 hr. The cells were harvested and HLA-DR, PD-L1, CD80 and CD86 molecules were analyzed using flow cytometry. Surface molecule expression is presented as the MFI. Values are presented as the mean±SEM from 3 independent experiments.
# FIGS. 2 A and B show the effect of cell adhesion to fibrinogen and reduction of PD-L1 expression by binding CD11b, respectively. […] 25000 of K562/CD11b cells adhered to the bottom of fibrinogen (20 μg/ml)-coated wells in the presence of 10 μM ML-C19-A or DMSO at 37° C. for 20 min. The results were quantitated by luciferase-based CellTiter-Glo (Promega CO.). Each bar represents mean±SEM of triplicate determinations from a representative experiment. […] Human monocytes were stimulated with LPS (100 ng/ml) in the presence of either DMSO control or 10 μM of ML-C19-A for 18 hr. The cells were harvested and PD-L1 molecules were analyzed using flow cytometry. Surface molecule expression is presented as the MFI. Values are presented as the mean±SEM from 10 independent experiments.
# Primed-monocytes were incubated in the presence of either an isotype control IgG, anti-CD11b antibody (ICRF44) or humanized anti-CD11b antibodies for 18 hr. The cells were harvested and PD-L1 expression on monocytes was analyzed using flow cytometry. […]
structure (smiles),measurement,value
NS(=O)(=O)c1ccc(N2C(=O)c3cccc4cccc(c34)C2=O)cc1 [ML-C19-A],PD-L1 expression in LPS-primed monocytes,inhibitory

# Source: patent publication US11685785B2, “Methods and antibodies for modulation of immunoresponse” (Ascendo Biotechnology, Inc., priority 2015, dated 2023)
